From patent US20120295838A1, “Selective poly-substituted glycine antibiotics and related compositions” (priority 2008, published 2012)
Where “and” joins values, the source holds several entries; their conditions need not be identical. Identical values can stand only once. Like-named read-outs stand apart in the source and are kept apart here. Numbered stars: 1 amine (or outer) side, 2 acyl side, 3 side chain; on linkers, the order of the positions; unused ones are H or OH. Square brackets hold non-standard residues; d marks the D form. Ends that are not written are not given here. Peptide text beside a SMILES is read from it. Gly(N-CH2CH2-imidazol-4-yl) = O=C(O)CNCCc1c[nH]cn1; X1 = CC(C)[C@H](C)N(CC(=O)[*:2])[*:1]; Nspe = C[C@H](NCC(=O)O)c1ccccc1; Nphe = O=C(O)CNCc1ccccc1; Nlys = NCCCCNCC(=O)O

Key:
Format in all cases: cell-based
six strains of S. aureus = test: Broad-spectrum antibacterial MIC, summary over S. aureus strains; settings: text summary of Table 7B; 10% hemolytic dose / MIC
Method: The activities of ampetoids tested against BSL2 Gram-positive strains, however, compared very favorably to those of pexiganan.
Broad-spectrum antibacterial assays. MICs of compounds were determined by microdilution procedure in Mueller-Hinton broth (MHB) in accordance with CLSI M7-A6 protocols in a manner similar to that described for the screen antibacterial assays. Inoculated microtiter plates were incubated at 35° C. for 24 hours prior to the result being recorded. Four ATCC strains that were used as standards are recommended by CLSI: Pseudomonas aeruginosa ATCC 27853, Escherichia coli ATCC 25922, Staphylococcus aureus ATCC 29213 and Enterococcus faecalis ATCC 29212. Other strains from the ATCC collection include Proteus vulgaris ATCC 49132, Proteus mirabilis ATCC 35659, Klebsiella pneumoniae ATCC 33495, Enterobacter aerogenes ATCC 35029 and Serratia marcescens ATCC 13880. S. aureus NRS100 (COL) is a well characterized methicillian-resistant S. aureus (MRSA) strain. The strains S. aureus VAN1 and S. aureus VAN2, vancomycin-resistant MRSA strains that were isolated in Michigan and Pennsylvania, were the first vancomycin-resistant strains clinically isolated. S. aureus NRS 119 and S. aureus NRS 120 are linezolid-resistant isolates from the Network on Antimicrobial Resistance in S. aureus (NARSA) collection. […]

E. coli ATCC 35218 = settings: for Selectivity ratio SR E. coli: Table 6, ratio of 10% hemolytic dose to E. coli MIC; for SR: Table 8, calculated as HD10/E. coli MIC
B. subtilis ATCC 6633 = settings: for Selectivity ratio SR B. subtilis: Table 6, ratio of 10% hemolytic dose to B. subtilis MIC
Procedure, shortened: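 Broth microdilution MICs per CLSI M7-A6 in cation-adjusted Mueller-Hinton broth, using 1×10^6 CFU/mL inoculum added 1:1 to twofold serial peptoid dilutions. Values reproducible across three independent experiments, each with two parallel trials.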

[1] = system: NIH 3T3 mouse fibroblast cells; test: MTS assay, NIH 3T3 cells; settings: mouse, 3 h
Procedure, shortened: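 NIH/3T3 cells seeded at 5,000 per well, grown a day in DMEM with 10% FBS, then washed and exposed to serially diluted peptoid in HBSS together with MTS reagent. Absorbance at 490 nm read after 3 hours at 37 °C as a measure of metabolic activity; mean of six replicates.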

human erythrocytes = test: Hemolysis assay
Procedure, shortened: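 Heparinised fresh human erythrocytes, 20 vol % in PBS pH 7.4, mixed 1:1 with 1:2 serially diluted peptoid and incubated 1 h at 37 °C. PBS alone as 0% and 0.2 vol % Triton X-100 as 100% hemolysis; after 1200 g spin for 15 min, supernatant A350 read.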

Row | Compound | selectivity ratios, range over S. aureus strains (six strains of S. aureus) | MIC for E. coli ATCC 35218 (E. coli ATCC 35218) [µM] | Selectivity ratio SR E. coli (E. coli ATCC 35218) | SR (E. coli ATCC 35218) | Selectivity ratio SR B. subtilis (B. subtilis ATCC 6633) | ID50 [1] [µM] | HD10 (human erythrocytes; human, 1 h, pH 7.4) [µM] | HD50 (human erythrocytes; human, 1 h, pH 7.4) [µM] | MIC for B. subtilis ATCC 6633 (B. subtilis ATCC 6633) [µM] | HD10 (human erythrocytes) | HD50 (human erythrocytes) | Selectivity ratio SR E. coli (E. coli ATCC 35218; listed as 1-Nspd2,5,8,11)
1 | GIGKFLKKAKKFGKAFVKILKK-NH2 [pexiganan, reference compound] | 2.8-23 | 3.1 to 6.3 | 11 | 12 | 44 | 9 | 73 | > 200 |  |  |  | 
2 | NCCCCNCC(=O)N(CC(=O)N(CC(=O)N(CCCCN)CC(=O)N(CC(=O)N(CC(=O)N(CCCCN)CC(=O)N(CC(=O)N(CC(=O)N(CCCCN)CC(=O)N(CC(=O)N(CC(N)=O)Cc1ccccc1)Cc1ccccc1)Cc1ccccc1)Cc1ccccc1)Cc1ccccc1)Cc1ccccc1)Cc1ccccc1)Cc1ccccc1 [1achiral, H-(Nlys-Npm-Npm)4-NH2] (H-[Nlys][Nphe][Nphe][Nlys][Nphe][Nphe][Nlys][Nphe][Nphe][Nlys][Nphe][Nphe]-NH2) | 19-39 | 12.5 | 15 | 14 | 235 |  |  |  | 1.6 | 180 µM | > 200 µM | 
3 | CC(C)[C@H](C)N(CC(=O)N(CC(=O)N(CCCCN)CC(=O)N(CC(=O)N(CC(=O)N(CCCCN)CC(=O)N(CC(=O)N(CC(=O)N(CCCCN)CC(=O)N(CC(=O)N(CC(N)=O)[C@@H](C)c1ccccc1)[C@@H](C)C(C)C)[C@@H](C)c1ccccc1)[C@@H](C)C(C)C)[C@@H](C)c1ccccc1)[C@@H](C)C(C)C)[C@@H](C)c1ccccc1)C(=O)CNCCCCN [1-Nsdp2,5,8,11, H-(Nlys-Nsdp-Nspe)4-NH2] (H-[Nlys][X1][Nspe][Nlys][X1][Nspe][Nlys][X1][Nspe][Nlys][X1][Nspe]-NH2) |  |  | > 9.7 and 9.7 |  | 142 |  |  |  |  |  |  | 9.7
4 | C[C@@H](c1ccccc1)N(CC(=O)N(CCc1cnc[nH]1)CC(=O)N(CCCCN)CC(=O)N(CC(=O)N(CC(=O)N(CCCCN)CC(=O)N(CC(=O)N(CCc1cnc[nH]1)CC(N)=O)[C@@H](C)c1ccccc1)[C@@H](C)c1ccccc1)[C@@H](C)c1ccccc1)C(=O)CN(CCCCN)C(=O)CN(C(=O)CN(C(=O)CNCCCCN)[C@@H](C)c1ccccc1)[C@@H](C)c1ccccc1 [1-Nhis6,12, H-(Nlys-Nspe-Nspe-Nlys-Nspe-Nhis)2-NH2] (H-[Nlys][Nspe][Nspe][Nlys][Nspe][Gly(N-CH2CH2-imidazol-4-yl)][Nlys][Nspe][Nspe][Nlys][Nspe][Gly(N-CH2CH2-imidazol-4-yl)]-NH2) |  | 50 |  | >4.0 |  |  |  |  | 0.78 to 1.6 | >200/>200 μM | >200/>200 μM | 
